Measured values taken from PMC10198977, “Computational design of dynamic receptor—peptide signaling complexes applied to chemotaxis” (Nature Communications, 2023).
Residues, ends and D or L forms follow the SMILES beside them. No end group written: not given here.

What was measured:
Format in all cases: cell-based
[1] = target: Csedy (Homo sapiens, UniProt P61073); assay: Gαi BRET of peptides on Csedy; conditions: Csedy receptor; for Gi BRET (dEC50): vs WT:WT
Description: (§1) Lyophilized peptides were stored at −80 °C and resuspended in assay buffer on the day of the experiment.
(§2) 40,000 HEK 293T cells were transiently transfected with WT or variant HA3-CXCR4, Gαi1−91-Rluc8, Gβ3-WT, and Gγ9-GFP2 in pcDNA3.1(+) at a ratio of 10:1:10:5 respectively. Cells were first seeded in 100 µL DMEM 10% FBS in a poly-lysine coated, white-walled, white-bottom 96-well plate. Directly after cell loading, 50 µL of the mixture containing Lipofectamine 2000 and the DNA was added on top of the cells. The cells were then left to incubate at 37 °C, 5% CO2, and 95% relative humidity for 20 h, after which, 150 µL media was refreshed. Cells were assayed 48 h post-transfection. Cells were washed with 150 µL PBS, then 40 µL BRET buffer (HBSS, 0.2% Glucose) was added to each well. Coelenterazine 400a was first added at a final concentration of 2.5 µM and BRET ratios were measured once using Mithras[2] LB 943 plate reader. After the first measurement, 40 µL of a 3x concentrated agonist solution was added to each well, and BRET ratios were measured for another 30 min using a Mithras[2] LB 943 plate reader. Mock-transfected controls were subtracted from the data. Maximum values averaged from 3 replicates were then plotted against selected concentrations and fitted to a sigmoidal curve using GraphPad Prism v9.

[2] = target: Cdyn (Homo sapiens, UniProt P61073, L41A/H113N/S178A); assay: Gαi BRET of peptides on Cdyn; set-up: Gi BRET (dEC50): unit not given here; conditions: Cdyn receptor; for Gi BRET (dEC50): vs WT:WT
Description: as §1, §2

[3] = test system: Gαi activation; assay: Gαi dissociation BRET of designed receptors with WT CXCL12(1-17) peptide; set-up: Gαi BRET response: scale not given here; conditions: HEK 293T
Description: as §1, §2

[4] = test system: Csel2 transduced primary human T cells; assay: Boyden chamber migration of T cells transduced with Csel2; set-up: key: migrated cells toward chemokine / migrated cells without chemoattractant; conditions: 100 nM full-length chemokine vs no chemoattractant, peak over 8 h
Description: (§3) Full-length chemokine purification
(§4) CXCL12 and variants expressed in pMS211 (pET21a-based) construct and purified as previously described. N-terminal His-tag and leader sequence cleaved with enterokinase to produce a final product with the correct N-terminal sequence. The final lyophilized protein was resuspended at 1 mg/ml in 0.1% BSA. Aliquots were snap frozen and stored at −80 °C.
(§5) Generation of human T cells expressing CXCR4 WT or variants
(§6) Peripheral blood mononuclear cells (PBMCs) were isolated from buffy coats by density gradient centrifugation (Lymphoprep, StemCell ref: 07851) and activated on plates coated with anti-CD3 ([…], Biolegend, ref: 317347, clone: OKT3) and anti-CD28 ([…], Biolegend, ref: 302934, clone: CD28.2) antibodies in T cell media (RPMI 10% FBS, 2 mM L-Glutamine, 1% Penicillin-Streptomycin) with IL-15 and IL-7 (Miltenyi Biotec, 10 ng/ml each, ref: 130-095-362 and ref: 130-095-765 respectively). The day before transduction, non-cell tissue culture treated 24-well plate (Greiner Bio-One, ref: 662102) was coated with retronectin (Takara Bio, ref: T100B) in PBS (7 μg/ml, 1 ml per well), and incubated overnight at 4 °C. Three days after activation, retronectin was removed and the plate was blocked with RPMI 10% FBS for 15 min at 37 °C. Then, media was removed and retroviral supernatant was centrifuged at 2000 × g, 1 h, 32 °C on retronectin-coated plates. Retroviral supernatant was gently removed and activated T cell suspension at 0.15 E^6 cells/ml was added, and centrifuged at 1000 × g, 10 min, 21 °C. Cells were incubated at 37 °C, 5% CO2, and 95% relative humidity for 3 days. After 48–72 h of transduction, T cells were harvested and further expanded in T cell media containing IL-7 and IL-15. Transduced T cells were positively selected with a PE selection kit (EasySep, ref: 17684) and an anti-HA PE-conjugated antibody (Biolegend, ref: 901518, clone: 16B12) at a 1:50 dilution to enrich transduced T cells. Enrichment of surface expression in PE-selected cells was confirmed by flow cytometry using a BD FACS LSR II cytometer (BD Biosciences) and analyzed with FlowJo software (BD Biosciences).
(§7) T cells transduced and selected for expression of CXCR4 variants from 3 to 6 donors were stained with 1 µM Vybrant DiO cell-labeling solution (Thermo, ref: V22886) in serum-free RPMI 1640 + GlutaMax. 40,000 cells in 75 µL were seeded in each well of 96-well Boyden chambers with 5.0 µm pores (Corning, ref: 3388)[44]. Reservoirs were filled with 200 µL serum-free RPMI 1640 + GlutaMax without chemoattractant or supplemented with 100 nM chemokine. The bottom of the attractant reservoir was imaged for migrated cells for 8 h with a Cytation 5 BioSpa (Biotek) at 37 °C with 5% CO2. Fluorescent spots were counted over time and compared to the no-chemoattractant control to calculate the migration index (# migrated cells towards chemoattractant / # migrated cells in absence of chemoattractant). The peak migration indices averaged between 3 technical replicates for each transduced donor per chemoattractant concentration were plotted.

[5] = test system: Csedy transduced primary human T cells; assay: Boyden chamber migration of T cells transduced with Csedy; set-up: key: migrated cells toward chemokine / migrated cells without chemoattractant; conditions: 100 nM full-length chemokine vs no chemoattractant, peak over 8 h
Description: as §3, §4, §5, §6, §7

[6] = test system: WT CXCR4 transduced primary human T cells; assay: Boyden chamber migration of T cells transduced with WT CXCR4; set-up: key to Migration Index: migrated cells toward chemokine / migrated cells without chemoattractant; conditions: for Migration Index: 100 nM full-length chemokine vs no chemoattractant, peak over 8 h, WT receptor
Description: as §3, §4, §5, §6, §7

[7] = target: WT CXCR4 (Homo sapiens, UniProt P61073); assay: Gαi BRET of peptides on WT CXCR4; conditions: for Gi BRET (dEC50): vs WT:WT, WT receptor
Description: as §1, §2

[8] = test system: Csel2; assay: Gαi BRET of peptides on Csel2; conditions: for Gi BRET (dEC50): vs WT:WT, Csel2 receptor
Description: as §1, §2

[9] = test system: Cdyn transduced primary human T cells; assay: Boyden chamber migration of T cells transduced with Cdyn; conditions: 100 nM full-length chemokine vs no chemoattractant, peak over 8 h
Description: as §3, §4, §5, §6, §7

Chain of Cdyn (P61073 whole entry L41A/H113N/S178A): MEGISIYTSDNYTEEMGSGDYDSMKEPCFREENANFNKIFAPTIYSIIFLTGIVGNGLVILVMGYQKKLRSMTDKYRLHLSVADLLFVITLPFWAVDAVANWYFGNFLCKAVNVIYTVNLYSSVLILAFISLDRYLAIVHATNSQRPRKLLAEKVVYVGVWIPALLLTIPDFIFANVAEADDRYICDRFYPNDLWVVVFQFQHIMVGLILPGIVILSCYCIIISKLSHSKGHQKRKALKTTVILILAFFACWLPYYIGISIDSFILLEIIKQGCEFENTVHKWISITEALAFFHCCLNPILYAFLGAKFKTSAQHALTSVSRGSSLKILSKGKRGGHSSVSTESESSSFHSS
Chain of WT CXCR4 (P61073 whole entry): as the sequence (P61073 whole entry L41A/H113N/S178A) above, with A41L, N113H, A178S counted along it
Chain of Csedy (P61073 whole entry): as the sequence (P61073 whole entry L41A/H113N/S178A) above, with A41L, N113H, A178S counted along it

V3W-Y7L: CXCL12(1-17) peptide variant V3W-Y7L (KPWSLSLRCPCRFFESH-NH2; cysteine pairing not given here; UniProt P48061 22-38, looked up, variant V3W Y7L)
Efficacy, Gi ([1]; mean): 135.5 %WT-WT | Gi BRET (dEC50) ([1]; replicate 1): -1.6525 | Gi BRET (dEC50) ([1]; replicate 2): -2.5125 | Gi BRET (dEC50) ([1]; replicate 3): -1.456

CC(C)C[C@H](NC(=O)[C@H](CO)NC(=O)[C@H](Cc1ccc(O)cc1)NC(=O)[C@@H]1CCCN1C(=O)[C@@H](N)CCCCN)C(=O)N[C@@H](CO)C(=O)N[C@@H](Cc1ccc(O)cc1)C(=O)N[C@@H](CCCNC(=N)N)C(=O)N[C@@H](CS)C(=O)N1CCC[C@H]1C(=O)N[C@@H](CS)C(=O)N[C@@H](CCCNC(=N)N)C(=O)N[C@@H](Cc1ccccc1)C(=O)N[C@@H](Cc1ccccc1)C(=O)N[C@@H](CCC(=O)O)C(=O)N[C@@H](CO)C(=O)N[C@@H](Cc1c[nH]cn1)C(N)=O [V3Y] (H-KPYSLSYRCPCRFFESH-NH2; N-terminus assumed)
enhanced potency ([2]; vs WT receptor–peptide pair): more than 80 -fold | Gi BRET (dEC50) ([2]; replicate 1): -2.1375 | Gi BRET (dEC50) ([2]; replicate 2): -1.6575 | Gi BRET (dEC50) ([2]; replicate 3): -1.8525 | Gi BRET (dEC50) ([2]; replicate 4): -1.6695 | Gi BRET (dEC50) ([2]; replicate 5): -1.8605

WT CXCR4: WT CXCR4 with an N-terminal 3xHA-tag
Gαi BRET response ([3]; log[WT CXCL12(1-17)] -4.17653, replicate 1): 84.4534 | Gαi BRET response ([3]; log[WT CXCL12(1-17)] -4.17653, replicate 2): 83.4696 | Gαi BRET response ([3]; log[WT CXCL12(1-17)] -4.65365, replicate 1): 62.5022 | Gαi BRET response ([3]; log[WT CXCL12(1-17)] -4.65365, replicate 2): 62.6195 | Gαi BRET response ([3]; log[WT CXCL12(1-17)] -5.13077, replicate 1): 35.993 | Gαi BRET response ([3]; log[WT CXCL12(1-17)] -5.13077, replicate 2): 39.2443 | Gαi BRET response ([3]; log[WT CXCL12(1-17)] -5.60789, replicate 1): 12.5404 | Gαi BRET response ([3]; log[WT CXCL12(1-17)] -5.60789, replicate 2): 16.9401 | Gαi BRET response ([3]; log[WT CXCL12(1-17)] -6.08501, replicate 1): 10.2917 | Gαi BRET response ([3]; log[WT CXCL12(1-17)] -6.08501, replicate 2): 3.156 | Gαi BRET response ([3]; log[WT CXCL12(1-17)] -8, replicate 1): -1.029 | Gαi BRET response ([3]; log[WT CXCL12(1-17)] -8, replicate 2): 1.036

V3W: CXCL12(1-17) peptide variant V3W (KPWSLSYRCPCRFFESH-NH2; cysteine pairing not given here; UniProt P48061 22-38, looked up, variant V3W)
Efficacy, Gi ([2]; mean): 130.6 %WT-WT | Gi BRET (dEC50) ([2]; replicate 1): -1.8535 | Gi BRET (dEC50) ([2]; replicate 2): -2.0125 | Gi BRET (dEC50) ([2]; replicate 3): -2.163

full-length V3Y-Y7L: full-length chemokine incorporating the designed N-terminal tail V3Y-Y7L
Migration Index ([4]; donor/replicate 1): 2.938 | Migration Index ([4]; donor/replicate 2): 2.133 | Migration Index ([4]; donor/replicate 3): 3.389 | Migration Index ([4]; donor/replicate 4): 4.146 | Migration Index ([4]; donor/replicate 5): 3.781 | Migration Index ([4]; donor/replicate 6): 2.587 | Migration Index ([5]; donor/replicate 1): 4.478 | Migration Index ([5]; donor/replicate 2): 3.833 | Migration Index ([5]; donor/replicate 3): 3.752 | Migration Index ([5]; donor/replicate 4): 3.787 | Migration Index ([6]; donor/replicate 1): 2 | Migration Index ([6]; donor/replicate 2): 2.852 | Migration Index ([6]; donor/replicate 3): 2.992

Y7L: CXCL12(1-17) peptide variant, Leu at P7 (KPVSLSLRCPCRFFESH-NH2; cysteine pairing not given here)
decrease in overall Gαi response ([7]; WT receptor (Fig. 3a)): 18% | Gi BRET (dEC50) ([7]; replicate 1): 0.3425 | Gi BRET (dEC50) ([7]; replicate 2): 0.267 | Gi BRET (dEC50) ([7]; replicate 3): 0.275 | Gαi efficacy increase ([8]; Csel2 receptor (Fig. 3a)): 30% | Gi BRET (dEC50) ([8]; replicate 1): -0.2255 | Gi BRET (dEC50) ([8]; replicate 2): -0.0185 | Gi BRET (dEC50) ([8]; replicate 3): -0.357

full-length V3Y: full-length chemokine incorporating the designed N-terminal tail V3Y
Migration Index ([9]; donor/replicate 1): 4.176 | Migration Index ([9]; donor/replicate 2): 5.188 | Migration Index ([9]; donor/replicate 3): 4.028 | Migration Index ([6]; donor/replicate 1): 2.294 | Migration Index ([6]; donor/replicate 2): 2.226 | Migration Index ([6]; donor/replicate 3): 3.315 | Migration Index ([6]; donor/replicate 4): 2.878 | Migration Index ([6]; donor/replicate 5): 1.825

full-length WT: full-length WT CXCL12 chemokine [reference compound]
Migration Index ([4]; donor/replicate 1): 3.533 | Migration Index ([4]; donor/replicate 2): 2.962 | Migration Index ([4]; donor/replicate 3): 2.156 | Migration Index ([4]; donor/replicate 4): 3.087 | Migration Index ([4]; donor/replicate 5): 2.058 | Migration Index ([5]; donor/replicate 1): 4.556 | Migration Index ([5]; donor/replicate 2): 4.556 | Migration Index ([5]; donor/replicate 3): 4.738 | Migration Index ([5]; donor/replicate 4): 4.774 | Migration Index ([9]; donor/replicate 1): 3.5 | Migration Index ([9]; donor/replicate 2): 2.758 | Migration Index ([9]; donor/replicate 3): 2.302 | enhanced migration ([6]; 100 nM WT CXCL12, vs no-attractant controls, WT CXCR4): around 1.5 -fold | Migration Index ([6]; donor/replicate 1): 1.882 | Migration Index ([6]; donor/replicate 2): 1.899 | Migration Index ([6]; donor/replicate 3): 1.407 | Migration Index ([6]; donor/replicate 4): 0.96
